Structures can show the parent of a compound that is named as a salt.
Legend:
Test in all cases: MIC, Agar (Mueller Hinton) Dilution Method
Format in all cases: cell-based
Prot. mirabilis 620A = conditions: Proteus mirabilis, 620A
From the text: (§1) The in vitro activity of the compounds of formula I of the present invention as measured by the Minimum Inhibitory Concentration (MIC) in micrograms/ml utilizing the Agar (Mueller Hinton) Dilution Method against a variety of Gram-positive and Gram-negative organisms, is set forth in Table 1.

E. coli 1894 E = conditions: Escherichia coli; E. coli 1894 E; Gram Negative; read-out: MIC
From the text: as §1

[1] = system: Ps. aeruginosa ATCC 27853; conditions: Pseudomonas aeruginosa, ATCC27853, Gram Negative
From the text: as §1

Mycobacterium phlei 78 = conditions: Mycolicibacterium phlei, 78
From the text: as §1

Staph. aureus 753 = conditions: Staphylococcus aureus, 753
From the text: as §1

Bacillus subtilis 558 = conditions: Bacillus subtilis 558; Gram Positive and Others; read-out: MIC
From the text: as §1

E. coli DC-0 = conditions: Escherichia coli, DC0, Gram Negative
From the text: as §1

E. coli TEM-1a = conditions: Escherichia coli, TEM1A
From the text: as §1

Candida albicans 155 = conditions: Gram Positive and Others
From the text: as §1

Ser. marcescens MA = conditions: Serratia marcescens, Gram Negative
From the text: as §1

Ser. sp. 101 = system: Ser. sp. 101
From the text: as §1

Staph. aureus Evans = conditions: Staphylococcus aureus; Staph. aureus Evans; Gram Positive and Others; read-out: MIC
From the text: as §1

E. coli 2721B = conditions: Escherichia coli, 2721B
From the text: as §1

Enter. cloacae 4946 = conditions: Enterobacter cloacae, Gram Negative
From the text: as §1

Prot. mirabilis 190 = conditions: Proteus mirabilis; Prot. mirabilis 190; Gram Negative; read-out: MIC
From the text: as §1

Ps. cepacia 1973 B = conditions: Burkholderia cepacia, Gram Negative
From the text: as §1

Enterobacter cloacae P99 = system: Enterobacter cloacae P99
From the text: as §1

Staph. aureus 67 = conditions: Staphylococcus aureus; Staph. aureus 67; methicillin-resistant; Gram Positive and Others; read-out: MIC
From the text: as §1

K. pneumoniae 369 = conditions: Klebsiella pneumoniae; K. pneumoniae 369; Gram Negative; read-out: MIC
From the text: as §1

Staph. pyogenes 4 = conditions: Staph. pyogenes 4; Gram Positive and Others; read-out: MIC
From the text: as §1

[2] = system: Pseudomonas aeruginosa 5712; conditions: Gram Negative
From the text: as §1

Prot. vulgaris 1028 BC = conditions: Proteus vulgaris, 1028BC
From the text: as §1

E. coli 2722B = conditions: Escherichia coli, Gram Negative
From the text: as §1

Escherichia coli 257 = conditions: Gram Negative
From the text: as §1

Cit. freundii EL-1408 = conditions: Citrobacter freundii, EL1408; Cit. freundii EL-1408; Gram Negative; read-out: MIC
From the text: as §1

Prot. mirabilis 503-1136 = conditions: Proteus mirabilis, 5031136
From the text: as §1

Xan. maltophilia 2897B = conditions: Stenotrophomonas maltophilia, Gram Negative
From the text: as §1

Ser. marcescens 1071 = conditions: Serratia marcescens, 1071
From the text: as §1

Staph. aureus 3037B = conditions: Staphylococcus aureus, 3037B
From the text: as §1

E. coli B = conditions: Escherichia coli, Gram Negative
From the text: as §1

Ps. aeruginosa 56-1B = conditions: Pseudomonas aeruginosa, 561B; Ps. aeruginosa 56-1B; Gram Negative; read-out: MIC
From the text: as §1

E. coli Leo HA2M4 = conditions: Escherichia coli, LEOHA2M4
From the text: as §1

Ps. aeruginosa 1973 E = conditions: Pseudomonas aeruginosa, Gram Negative
From the text: as §1

E. coli HMS1 = conditions: Escherichia coli, HMS1
From the text: as §1

E. coli 1269B = conditions: Escherichia coli, Gram Negative
From the text: as §1

Ps. aeruginosa 56M = conditions: Pseudomonas aeruginosa, Gram Negative
From the text: as §1

Ps. aeruginosa 765 = conditions: Pseudomonas aeruginosa, Gram Negative
From the text: as §1

Prot. vulgaris 100 = conditions: Proteus vulgaris, Gram Negative
From the text: as §1

Str. pyogenes 503-782 = conditions: Streptococcus pyogenes, 503782; Str. pyogenes 503-782; Gram Positive and Others; read-out: MIC
From the text: as §1

E. coli 1527E = conditions: Escherichia coli, Gram Negative
From the text: as §1

**Q.** With `N#CCC(=O)N[C@@H]1C(=O)N2C(C(=O)O)=C(COC(=O)N[C@@H]3CCN(c4c(F)cc5c(=O)c(C(=O)O)cn(C6CC6)c5c4F)C3)CS[C@H]12` [Formula Ibb, [6R-[3(R^*), 6 alpha, 7 beta]]-3-[[[[[1-(3-Carboxy-1-cyclopropyl-6,8-difluoro-1,4-dihydro-4-oxo-7-quinolinyl-3-pyrrolidinyi]amino]carbonyl]oxy]methyL]-7-[(cyanoacetyl)amino]-8-oxo-5-thia-1-azabicyclo[4.2.0]oct-2-ene-2-carboxylic acid monosodium salt] as the compound, how does the MIC (Prot. mirabilis 620A) read?
**A.** 0.125 µg/mL

**Q.** And the MIC (E. coli 1894 E)?
**A.** 0.0625 µg/mL

**Q.** And the MIC [1]?
**A.** 2 µg/mL

**Q.** And the MIC (Mycobacterium phlei 78)?
**A.** 0.125 µg/mL

**Q.** What about the MIC (Staph. aureus 753) of the same compound?
**A.** 0.125 µg/mL

**Q.** And the MIC (Bacillus subtilis 558)?
**A.** 0.0625 µg/mL

**Q.** What about the MIC (E. coli DC-0) of the same compound?
**A.** 2 µg/mL

**Q.** And the MIC (E. coli TEM-1a)?
**A.** 0.125 µg/mL

**Q.** And the MIC (Candida albicans 155)?
**A.** > 128 µg/mL

**Q.** What about the MIC (Ser. marcescens MA) of the same compound?
**A.** 8 µg/mL

**Q.** What about the MIC (Ser. sp. 101) of the same compound?
**A.** 0.125 µg/mL

**Q.** And the MIC (Staph. aureus Evans)?
**A.** 0.0625 µg/mL

**Q.** What about the MIC (E. coli 2721B) of the same compound?
**A.** 0.0313 µg/mL

**Q.** What about the MIC (Enter. cloacae 4946) of the same compound?
**A.** 0.125 µg/mL

**Q.** What about the MIC (Prot. mirabilis 190) of the same compound?
**A.** 0.0625 µg/mL

**Q.** And the MIC (Ps. cepacia 1973 B)?
**A.** 4 µg/mL

**Q.** And the MIC (Enterobacter cloacae P99)?
**A.** ≤ 0.0156 µg/mL

**Q.** And the MIC (Staph. aureus 67)?
**A.** 0.5 µg/mL

**Q.** What about the MIC (K. pneumoniae 369) of the same compound?
**A.** 0.5 µg/mL

**Q.** And the MIC (Staph. pyogenes 4)?
**A.** 0.0625 µg/mL

**Q.** And the MIC [2]?
**A.** 4 µg/mL

**Q.** And the MIC (Prot. vulgaris 1028 BC)?
**A.** 0.0313 µg/mL

**Q.** What about the MIC (E. coli 2722B) of the same compound?
**A.** ≤ 0.0156 µg/mL

**Q.** And the MIC (Escherichia coli 257)?
**A.** 0.125 µg/mL

**Q.** What about the MIC (Cit. freundii EL-1408) of the same compound?
**A.** 0.5 µg/mL

**Q.** What about the MIC (Prot. mirabilis 503-1136) of the same compound?
**A.** 0.125 µg/mL

**Q.** What about the MIC (Xan. maltophilia 2897B) of the same compound?
**A.** 0.5 µg/mL

**Q.** What about the MIC (Ser. marcescens 1071) of the same compound?
**A.** 0.125 µg/mL

**Q.** And the MIC (Staph. aureus 3037B)?
**A.** 0.125 µg/mL

**Q.** And the MIC (E. coli B)?
**A.** 0.0313 µg/mL

**Q.** And the MIC (Ps. aeruginosa 56-1B)?
**A.** 0.5 µg/mL

**Q.** What about the MIC (E. coli Leo HA2M4) of the same compound?
**A.** 0.0313 µg/mL

**Q.** And the MIC (Ps. aeruginosa 1973 E)?
**A.** 1 µg/mL

**Q.** And the MIC (E. coli HMS1)?
**A.** 0.0313 µg/mL

**Q.** What about the MIC (E. coli 1269B) of the same compound?
**A.** 0.0625 µg/mL

**Q.** What about the MIC (Ps. aeruginosa 56M) of the same compound?
**A.** 0.25 µg/mL

**Q.** And the MIC (Ps. aeruginosa 765)?
**A.** 2 µg/mL

**Q.** What about the MIC (Prot. vulgaris 100) of the same compound?
**A.** 0.0625 µg/mL

**Q.** What about the MIC (Str. pyogenes 503-782) of the same compound?
**A.** 0.0625 µg/mL

**Q.** And the MIC (E. coli 1527E)?
**A.** 0.0625 µg/mL
